Measured values: patent publication US20190175744A1, “INSULIN-INCRETIN CONJUGATES” (Merck Sharp & Dohme Corp., priority 2016, published 2019)
Where two headings read alike, the source gives them in different places.

Legend:
Insulin Receptor = molecular target: T1, Insulin Receptor (Sus scrofa, UniProt F1SCL0); assay: Insulin Receptor Binding Assay, minipig; conditions: Table 7, control molecules, minipig IR
T1 construct: expressed in transfected cells
Protocol: Method 1 IR binding assay is a whole cell binding method using CHO cells overexpressing human IR(B). The cells are grown in F12 media containing 10% FBS and antibiotics (G418, Penicillin/Strepavidin), plated at 40,000 cells/well in a 96-well tissue culture plate for at least eight hours. The cells are then serum starved by switching to DMEM media containing 1% BSA (insulin-free) overnight. The cells are washed twice with chilled DMEM media containing 1% BSA (insulin-free) followed by the addition of conjugate at appropriate concentration in 90 μL of the same media. The cells are incubated on ice for 60 minutes.
Method 2 IR binding assay is run in a scintillation proximity assay (SPA) in 384-well format using cell membranes prepared from CHO cells overexpressing human IR(B) grown in F12 media containing 10% FBS and antibiotics (G418, Penicillin/Strepavidin). Cell membranes are prepared in 50 mM Tris buffer, pH 7.8 containing 5 mM MgCl2. The assay buffer contains 50 mM Tris buffer, pH 7.5, 150 mM NaCl, 1 mM CaCl2, 5 mM MgCl2, 0.1% BSA and protease inhibitors (Complete-Mini-Roche). Cell membranes are added to WGA PVT PEI SPA beads (5 mg/mL final concentration) followed by addition of conjugate at appropriate concentrations.

human GCGR = molecular target: T2, human GCGR (Homo sapiens, UniProt P47871); assay: cAMP activity assay, cells expressing human GCGR; assay type: cell-based; conditions: for GCGR/GLP1R ratio: Table 5, ratio of hGCGR EC50 to hGLP1R EC50;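 for all read-outs here: cAMP production read by luminescence after one hour of peptide exposure at room temperature, EC50 from logistic curve fit, native glucagon and GLP-1 as control peptides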
T2 construct: expressed in transfected cells; grown with Blasticidin and Hygromycin

human GLP1R = human GLP1R (Homo sapiens, UniProt P43220); assay: cAMP activity assay, cells expressing human GLP1R; assay type: cell-based
Protocol: Activity of the incretin peptides or the conjugates at the Glucagon receptor (GCGR) and GLP-1 receptor (GLP1R) may be measured in a cAMP activity assay as follows.
Peptides are dissolved in 100% DMSO and serially diluted to generate 10 point titrations. The peptide solutions are then transferred into 384-well assay plates (150 nL/well). Assay ready frozen cells expressing human GLP1R or human GCGR are suspended in growth media consisting of DMEM medium (GIBCO), 10% FBS (GIBCO), 1×NEAA(GIBCO), 1×P/S (GIBCO), 10 μg/mL Blasticidin (GIBCO) and 200 μg/mL Hygromycin (GIBCO). […] The cell suspensions (15 μL) are then added to the assay plates containing the peptide solutions (30,000 cells/well for human GCGR; 10,000 cells/well for human GLP1R). The cells are incubated for one hour at room temperature in the dark.
Production of cAMP may be determined using HitHunterr cAMPXS kits (DiscoverX) following the manufacturer's protocol. The plates are incubated for overnight at room temperature in the dark. Luminescence may be measured using an EnVision Multilabel plate reader (Perkin Elmer). Native GLP-1 and Glucagon (Bachem) may be used as control peptides. EC50 values may be calculated using uses a 4 parameter logistic fit based on the Levenberg-Marquardt algorithm.

human IR = molecular target: T3, human IR (Homo sapiens, UniProt P06213); assay: Insulin Receptor Phosphorylation (pAkt) Assay, CHO cells overexpressing human IR; assay type: cell-based; conditions: Table 7, control molecules, read-out: Insulin Receptor pAK Assay EC50 Human
T3 construct: expressed in transfected cells; host or cells: CHO cells (G418 selection)

minipig IR = molecular target: T4, minipig IR (Sus scrofa, UniProt F1SCL0); assay: Insulin Receptor Phosphorylation (pAkt) Assay, CHO cells overexpressing minipig IR; assay type: cell-based; conditions: Table 7, control molecules, read-out: Insulin Receptor pAK Assay EC50 Minipig
T4 construct: expressed in transfected cells; host or cells: CHO cells (G418 selection)

[1] = Table 5, incretin peptides, cAMP, read-out: hGCGR_EC50
[2] = Table 5, incretin peptides, cAMP, read-out: hGLP1R EC50

T2 sequence (P47871 26-477): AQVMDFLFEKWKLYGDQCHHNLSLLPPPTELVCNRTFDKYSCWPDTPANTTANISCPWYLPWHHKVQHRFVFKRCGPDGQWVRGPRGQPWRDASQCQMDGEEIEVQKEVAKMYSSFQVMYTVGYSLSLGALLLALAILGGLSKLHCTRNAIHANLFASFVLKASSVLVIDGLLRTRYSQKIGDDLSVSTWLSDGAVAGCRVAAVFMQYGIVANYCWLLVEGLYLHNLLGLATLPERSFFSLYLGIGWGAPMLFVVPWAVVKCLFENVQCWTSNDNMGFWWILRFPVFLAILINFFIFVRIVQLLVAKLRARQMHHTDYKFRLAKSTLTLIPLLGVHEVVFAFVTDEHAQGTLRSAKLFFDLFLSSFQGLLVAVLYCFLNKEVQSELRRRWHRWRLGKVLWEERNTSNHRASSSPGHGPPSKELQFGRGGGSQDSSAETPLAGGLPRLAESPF
Chain of human GLP1R (P43220 24-463): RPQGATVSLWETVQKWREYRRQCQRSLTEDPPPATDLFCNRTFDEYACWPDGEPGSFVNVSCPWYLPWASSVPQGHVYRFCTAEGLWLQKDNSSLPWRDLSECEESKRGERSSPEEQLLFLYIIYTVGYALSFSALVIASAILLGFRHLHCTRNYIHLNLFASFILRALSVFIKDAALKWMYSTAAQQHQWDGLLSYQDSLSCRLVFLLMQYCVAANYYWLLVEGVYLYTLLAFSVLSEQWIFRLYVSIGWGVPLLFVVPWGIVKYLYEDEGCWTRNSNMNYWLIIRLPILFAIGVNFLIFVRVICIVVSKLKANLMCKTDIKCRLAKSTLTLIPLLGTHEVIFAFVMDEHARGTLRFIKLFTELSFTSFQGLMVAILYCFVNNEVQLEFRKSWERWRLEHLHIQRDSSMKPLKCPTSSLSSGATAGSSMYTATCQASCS
T4 sequence (F1SCL0 28-1382): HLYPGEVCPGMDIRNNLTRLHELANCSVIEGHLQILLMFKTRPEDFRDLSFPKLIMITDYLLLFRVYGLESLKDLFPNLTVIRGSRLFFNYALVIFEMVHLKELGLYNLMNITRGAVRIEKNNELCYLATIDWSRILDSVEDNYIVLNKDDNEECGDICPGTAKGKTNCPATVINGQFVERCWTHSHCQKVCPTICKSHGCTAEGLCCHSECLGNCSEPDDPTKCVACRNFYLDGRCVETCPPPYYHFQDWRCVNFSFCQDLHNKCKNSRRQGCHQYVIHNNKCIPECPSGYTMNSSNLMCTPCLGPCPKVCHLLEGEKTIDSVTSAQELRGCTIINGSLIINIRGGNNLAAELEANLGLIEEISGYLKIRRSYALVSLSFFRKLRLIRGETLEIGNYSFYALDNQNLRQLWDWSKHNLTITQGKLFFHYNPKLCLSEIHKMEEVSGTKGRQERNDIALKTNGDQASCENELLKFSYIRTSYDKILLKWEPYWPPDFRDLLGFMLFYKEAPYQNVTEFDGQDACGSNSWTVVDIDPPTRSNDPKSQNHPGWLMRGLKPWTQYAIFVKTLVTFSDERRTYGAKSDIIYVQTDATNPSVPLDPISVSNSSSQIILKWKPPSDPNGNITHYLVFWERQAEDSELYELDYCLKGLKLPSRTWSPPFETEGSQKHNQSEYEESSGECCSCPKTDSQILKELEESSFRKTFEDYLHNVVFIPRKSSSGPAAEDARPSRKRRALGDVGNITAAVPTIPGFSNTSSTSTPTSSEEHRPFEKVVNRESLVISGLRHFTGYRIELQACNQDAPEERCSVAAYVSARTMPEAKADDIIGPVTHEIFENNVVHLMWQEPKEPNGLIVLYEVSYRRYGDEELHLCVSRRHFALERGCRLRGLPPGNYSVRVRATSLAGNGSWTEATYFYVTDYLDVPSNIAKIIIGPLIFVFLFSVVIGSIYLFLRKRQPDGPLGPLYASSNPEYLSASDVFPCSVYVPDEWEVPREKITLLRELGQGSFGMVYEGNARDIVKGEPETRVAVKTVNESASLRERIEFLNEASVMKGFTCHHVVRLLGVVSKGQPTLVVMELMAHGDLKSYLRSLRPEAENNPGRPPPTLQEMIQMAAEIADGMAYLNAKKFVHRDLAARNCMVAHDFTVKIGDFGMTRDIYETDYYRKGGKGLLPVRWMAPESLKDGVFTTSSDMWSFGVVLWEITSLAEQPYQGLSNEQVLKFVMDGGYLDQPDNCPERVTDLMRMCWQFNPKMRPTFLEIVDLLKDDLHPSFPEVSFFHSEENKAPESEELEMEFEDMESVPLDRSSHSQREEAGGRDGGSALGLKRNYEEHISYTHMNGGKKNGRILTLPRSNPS
T1 sequence (F1SCL0 28-1382): as above
T3 sequence (P06213 28-758 limits assumed): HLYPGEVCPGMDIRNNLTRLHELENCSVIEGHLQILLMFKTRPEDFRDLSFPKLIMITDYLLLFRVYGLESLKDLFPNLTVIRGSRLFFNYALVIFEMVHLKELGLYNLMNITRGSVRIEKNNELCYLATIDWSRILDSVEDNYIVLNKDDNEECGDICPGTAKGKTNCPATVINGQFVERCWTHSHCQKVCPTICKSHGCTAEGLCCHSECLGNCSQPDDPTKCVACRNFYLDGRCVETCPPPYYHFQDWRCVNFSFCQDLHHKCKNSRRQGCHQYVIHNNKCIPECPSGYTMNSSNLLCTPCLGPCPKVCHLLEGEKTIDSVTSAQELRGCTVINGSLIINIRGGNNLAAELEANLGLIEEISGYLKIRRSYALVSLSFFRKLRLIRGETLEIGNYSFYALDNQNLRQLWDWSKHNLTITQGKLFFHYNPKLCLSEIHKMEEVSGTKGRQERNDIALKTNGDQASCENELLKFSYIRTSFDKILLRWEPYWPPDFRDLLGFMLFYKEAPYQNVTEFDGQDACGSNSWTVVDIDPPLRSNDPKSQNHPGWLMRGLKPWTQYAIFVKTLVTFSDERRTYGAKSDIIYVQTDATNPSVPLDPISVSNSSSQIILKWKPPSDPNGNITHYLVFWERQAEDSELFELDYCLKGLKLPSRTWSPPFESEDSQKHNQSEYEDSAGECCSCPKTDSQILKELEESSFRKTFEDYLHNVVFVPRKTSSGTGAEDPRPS
T3 sequence (P06213 763-1382 limits assumed): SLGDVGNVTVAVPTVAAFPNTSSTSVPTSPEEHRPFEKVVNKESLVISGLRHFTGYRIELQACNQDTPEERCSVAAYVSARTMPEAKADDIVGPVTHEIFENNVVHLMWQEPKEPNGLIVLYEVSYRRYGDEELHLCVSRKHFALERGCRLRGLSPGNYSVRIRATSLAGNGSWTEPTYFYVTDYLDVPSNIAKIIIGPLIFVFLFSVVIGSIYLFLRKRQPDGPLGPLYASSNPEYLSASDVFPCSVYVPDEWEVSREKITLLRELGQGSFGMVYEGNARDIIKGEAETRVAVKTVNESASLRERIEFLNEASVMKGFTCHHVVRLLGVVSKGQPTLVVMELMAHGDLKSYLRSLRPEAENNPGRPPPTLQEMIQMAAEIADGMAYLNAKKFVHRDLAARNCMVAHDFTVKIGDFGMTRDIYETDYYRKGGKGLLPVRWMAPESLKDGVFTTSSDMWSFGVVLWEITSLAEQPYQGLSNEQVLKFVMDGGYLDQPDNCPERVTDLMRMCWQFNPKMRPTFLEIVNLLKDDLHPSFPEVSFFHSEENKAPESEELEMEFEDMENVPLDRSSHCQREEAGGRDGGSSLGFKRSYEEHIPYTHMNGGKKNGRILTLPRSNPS

## Insulin degludec [ID]
Insulin Receptor
  EC50: 8.46 nM

## CCCCCCCCCCCCCCCC(=O)N[C@@H](CCC(=O)N[C@@H](CCC(=O)NCCCC[C@H](NC(=O)[C@H](CC(=O)O)NC(=O)[C@H](CO)NC(=O)[C@@H](NC(=O)[C@H](Cc1ccccc1)NC(=O)[C@@H](NC(=O)CNC(=O)[C@H](CCC(N)=O)NC(=O)[C@@H](CO)NC(=O)[C@@H](N)Cc1c[nH]cn1)[C@@H](C)O)[C@@H](C)O)C(=O)N[C@@H](CO)C(=O)N[C@@H](CCCCN)C(=O)N[C@@H](Cc1ccc(O)cc1)C(=O)N[C@@H](CC(C)C)C(=O)N[C@@H](CC(=O)O)C(=O)N[C@@H](CCC(=O)O)C(=O)N[C@@H](CCCNC(=N)N)C(=O)N[C@@H](C)C(=O)N[C@@H](C)C(=O)N[C@@H](CCC(N)=O)C(=O)N[C@@H](CC(=O)O)C(=O)N[C@@](C)(Cc1ccccc1)C(=O)N[C@H](C(=O)N[C@@H](CCCCN=[N+]=[N-])C(=O)N[C@@H](Cc1c[nH]c2ccccc12)C(=O)N[C@@H](CC(C)C)C(=O)N[C@@H](CCS(C)(=O)=O)C(=O)N[C@@H](CC(=O)O)C(=O)N[C@H](C(N)=O)[C@@H](C)O)C(C)C)C(=O)O)C(=O)O [PEP35]
Human GCGR; [1]
  EC50: 0.05 nM
Human GCGR
  GCGR/GLP1R ratio: 1.0
Human GLP1R; [2]
  EC50: 0.05 nM

## CCCCCCCCCCCCCCCC(=O)N[C@@H](CCC(=O)N[C@@H](CCC(=O)NCCCC[C@H](NC(=O)[C@H](CC(=O)O)NC(=O)[C@H](CO)NC(=O)[C@@H](NC(=O)[C@H](Cc1ccccc1)NC(=O)[C@@H](NC(=O)CNC(=O)[C@H](CCC(N)=O)NC(=O)[C@@H](CO)NC(=O)[C@@H](N)Cc1c[nH]cn1)[C@@H](C)O)[C@@H](C)O)C(=O)N[C@@H](CO)C(=O)N[C@@H](CCCCN)C(=O)N[C@@H](Cc1ccc(O)cc1)C(=O)N[C@@H](CC(C)C)C(=O)N[C@@H](CC(=O)O)C(=O)N[C@@H](CCC(=O)O)C(=O)N[C@@H](CCCNC(=N)N)C(=O)N[C@@H](C)C(=O)N[C@@H](C)C(=O)N[C@@H](CCCCNC(=O)COCCOCCNC(=O)CCCCN=[N+]=[N-])C(=O)N[C@@H](CC(=O)O)C(=O)N[C@@H](Cc1ccccc1)C(=O)N[C@H](C(=O)N[C@@H](CCC(N)=O)C(=O)N[C@@H](Cc1c[nH]c2ccccc12)C(=O)N[C@@H](CC(C)C)C(=O)N[C@@H](CC(C)C)C(=O)N[C@@H](CC(=O)O)C(=O)N[C@H](C(N)=O)[C@@H](C)O)C(C)C)C(=O)O)C(=O)O [PEP16]
Human GCGR
  EC50: 0.05 nM
  GCGR/GLP1R ratio: 0.8
Human GLP1R; [2]
  EC50: 0.06 nM

## CCCCCCCCCCCCCCCC(=O)N[C@@H](CCC(=O)N[C@@H](CCC(=O)NCCCC[C@H](NC(=O)[C@H](CC(=O)O)NC(=O)[C@H](CO)NC(=O)[C@@H](NC(=O)[C@H](Cc1ccccc1)NC(=O)[C@@H](NC(=O)CNC(=O)[C@H](CCC(N)=O)NC(=O)C(C)(C)NC(=O)[C@@H](N)Cc1c[nH]cn1)[C@@H](C)O)[C@@H](C)O)C(=O)N[C@@H](CO)C(=O)N[C@@H](CCCCN)C(=O)N[C@@H](Cc1ccc(O)cc1)C(=O)N[C@@H](CC(C)C)C(=O)N[C@@H](CC(=O)O)C(=O)NC(C)(C)C(=O)N[C@@H](CCCNC(=N)N)C(=O)N[C@@H](C)C(=O)N[C@@H](C)C(=O)N[C@@H](CCC(N)=O)C(=O)N[C@@H](CC(=O)O)C(=O)N[C@@H](Cc1ccccc1)C(=O)N[C@H](C(=O)N[C@@H](CCCCN=[N+]=[N-])C(=O)N[C@@H](Cc1c[nH]c2ccccc12)C(=O)N[C@@H](CC(C)C)C(=O)N[C@@H](CCS(C)(=O)=O)C(=O)N[C@@H](CC(=O)O)C(=O)N[C@H](C(N)=O)[C@@H](C)O)C(C)C)C(=O)O)C(=O)O [PEP10]
Human GCGR
  EC50: 0.02 nM
  GCGR/GLP1R ratio: 0.7
Human GLP1R
  EC50: 0.03 nM

## Insulin levemir [IL]
Human IR
  EC50: 0.51 nM
Minipig IR
  EC50: 0.5 nM

## CCCCCCCCCCCCCCCC(=O)N[C@@H](CCC(=O)N[C@@H](CCC(=O)NCCCC[C@H](NC(=O)[C@H](CC(=O)O)NC(=O)[C@H](CO)NC(=O)[C@@H](NC(=O)[C@H](Cc1ccccc1)NC(=O)[C@@H](NC(=O)CNC(=O)[C@H](CCC(N)=O)NC(=O)[C@@H](CO)NC(=O)[C@@H](N)Cc1c[nH]cn1)[C@@H](C)O)[C@@H](C)O)C(=O)N[C@@H](CO)C(=O)N[C@@H](CCCCN)C(=O)N[C@@H](Cc1ccc(O)cc1)C(=O)N[C@@H](CC(C)C)C(=O)N[C@@H](CC(=O)O)C(=O)N[C@@H](CCC(=O)O)C(=O)N[C@@H](CCCNC(=N)N)C(=O)N[C@@H](C)C(=O)N[C@@H](C)C(=O)N[C@@H](CCC(N)=O)C(=O)N[C@@H](CC(=O)O)C(=O)N[C@@H](Cc1ccccc1)C(=O)N[C@H](C(=O)N[C@@H](CCCCN=[N+]=[N-])C(=O)N[C@@H](Cc1c[nH]c2ccccc12)C(=O)N[C@@](C)(CC(C)C)C(=O)N[C@@H](CCS(C)(=O)=O)C(=O)N[C@@H](CC(=O)O)C(=O)N[C@H](C(N)=O)[C@@H](C)O)C(C)C)C(=O)O)C(=O)O [PEP37]
Human GCGR; [1]
  EC50: 0.06 nM
Human GCGR
  GCGR/GLP1R ratio: 1.5
Human GLP1R; [2]
  EC50: 0.04 nM
